Several values for one entry are separate records, joined by “and”; a condition that tells them apart may be missing. Equal entries are not always repeated.
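Also: spheroids exposed to compounds for seven days before the viability read.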
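For viability, T/C in this document: luminescent signal used as a stand-in for viable cell amount; 100% = DMSO vehicle control wells.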

The test system of one assay is 186277-243-T-J2-PDC complex spheroid growth. The assay can be described thus: Anticancer human tumor 186277-243-T-J2-PDC patient-derived colon adenocarcinoma cell line growth inhibition [AhR]. As to conditions: compound 3.16 µM; stronger effect = lower value. An excerpt:
Multicellular complex tumor spheroid response to aryl hydrocarbon receptor antagonists in combination with a variety of drugs and investigational agents in selected tumor cell lines
The current study was undertaken to assess response to aryl hydrocarbon receptor antagonists in combination with standard-of-care drugs and investigational agents in solid tumor complex spheroid models. Complex spheroids include a stromal component modeled by human endothelial cells (HUVEC) and fibroblasts modeled by human mesenchymal stem cells (MSCs). The concentration ranges selected for each drug and investigational agent were based upon clinically achievable concentrations if the clinical Cmax of the agent was known.
Compounds. The drugs and investigational agents: BAY 2416964 (NSC825713), GNF351 (NSC835774), CH-223191 (NSC835775), CPI-455 (NSC825282), aza-TdCyd (NSC777586), decitabine (NSC127716), belinostat (NSC758774), entinostat (NSC756642), pevonedistat (NSC761192), tazemetostat (NSC777109), talazoparib (NSC765396), olaparib (NSC753686), selinexor (NSC780203), nedisertib (M3814, NSC802822), bortezomib (NSC756655), venetoclax (NSC766270), doxorubicin (NSC123127), elimusertib (BAY189344, NSC800525), ceralasertib (AZD6738, NSC777638), TAK-243 (NSC785004), alisertib (NSC759677), etoposide (NSC141540), topotecan (NSC609699), eribulin (NSC707389), gemcitabine (NSC613327), carboplatin (NSC241240), cisplatin (NSC119875), and SN-38 (NSC673596) were obtained from the National Cancer Institute (NCI) Developmental Therapeutics Program Chemical Repository (32). The FDA-approved anticancer drug set is available from the Developmental Therapeutics Program at https://dtp.cancer.gov/organization/dscb/obtaining/available plates.htm. […] The stock solutions were prepared in dimethyl sulfoxide (DMSO, Sigma-Aldrich, St. Louis, MO, cat. D2650), except for the platinum compounds which were prepared in saline (Quality Biological, Gaithersburg, MD, cat. 114-055-101), at 800-fold the tested concentration and stored at -70 degrees C prior to their use. All drugs and investigational agents were tested over a range starting from a high concentration at or near the clinical Cmax and decreasing in half-log increments. If the clinical Cmax for an agent had not been determined, the highest concentration tested was 10 microM (Table 1).
Cell Culture. All cells were maintained in an incubator at 37 degrees C and 5% CO2 with 95% humidity. The PDC lines were cultured according to standard operating procedures established by the NCI PDMR (https://pdmr.cancer.gov). Briefly, all PDCs were thawed and cultured in Matrigel-coated flasks prepared with a working solution of 1X Ham's F-12 nutrient mix, without supplementation (Invitrogen, Waltham, MA, cat. 11765054), 100 U/mL penicillin-streptomycin (Invitrogen, cat. 15140122), and 2.5% Matrigel (Corning Inc., Corning, NY, cat. 354248) for the first three passages. All PDCs were cultured in complete DMEM/F-12 media containing advanced DMEM/F-12 (Invitrogen, cat. 12634028), 4.9% defined fetal bovine serum, heat inactivated (HyClone Laboratories Inc., Logan, UT, cat. SH30070.03HI), 389 ng/mL hydrocortisone (Sigma-Aldrich, cat. H4001), 9.7 ng/mL human EGF recombinant protein (Invitrogen, cat. PHG0313), 23.4 microg/mL adenine (Sigma-Aldrich, cat. A2786), 97.3 U/mL penicillin-streptomycin (Invitrogen, cat. 15140122), 1.9 mM L-glutamine (Invitrogen, cat. 25030081), and 9.7 microM Y-27632 dihydrochloride (Tocris Bioscience, Bristol, United Kingdom, cat. 1254). The PDCs were cultured in complete DMEM/F12 media without 10 microM Y-27632 dihydrochloride for at least two passages prior to the screen. The established cell lines NCI-H1341 and […] were cultured in DMEM/F-12, HEPES (Invitrogen, cat. 11330032), 5% defined fetal bovine serum (HyClone Laboratories Inc., cat. SH30070.03), ITS premix universal culture supplement [insulin (5 microg/mL), transferrin (5 microg/mL), and selenious acid (5 ng/mL)] […]
In the case of `COc1cc(C2c3cc4c(cc3C(OC3OC5COC(C)OC5C(O)C3O)C3COC(=O)C23)OCO4)cc(OC)c1O` (stereo unspecified), the viability, T/C is 51.1% and 17.5% and 85.7%.
`COc1cc(Nc2ncc3c(n2)-c2ccc(Cl)cc2C(c2c(F)cccc2OC)=NC3)ccc1C(=O)O`: the viability, T/C was 79.1% and 117% and 22.9%.
Same read-out and setting: as for `COc1cccc2c1C(=O)c1c(O)c3c(c(O)c1C2=O)CC(O)(C(=O)CO)CC3OC1CC(N)C(O)C(C)O1` (stereo unspecified), the figure is 0.36% and 0.59% and 0.22%.
In the case of `NS(=O)(=O)OCC1CC(n2ccc3c(NC4CCc5ccccc54)ncnc32)CC1O` (stereo unspecified), the viability, T/C was 20.8% and 25.7% and 4.9%.
In the case of `Nc1ccccc1NC(=O)c1ccc(CNC(=O)OCc2cccnc2)cc1`, the viability, T/C is 68.6% and 79.5% and 12.6%.
For the compound `Nc1ccn(C2OC(CO)C(O)C2(F)F)c(=O)n1` (stereo unspecified), the viability, T/C is 9.77% and 4.35% and 19.5%.
Turning to `O=C(c1cc(Cc2n[nH]c(=O)c3ccccc23)ccc1F)N1CCN(C(=O)C2CC2)CC1`, the viability, T/C was 132% and 89.9% and 70.9%.

Still in this assay, the particulars now being: compound 10 µM; stronger effect = lower value.
Consider `CC1COCCN1c1cc(C2(S(C)(=N)=O)CC2)nc(-c2ccnc3[nH]ccc23)n1` (stereo unspecified), for which the viability, T/C was 8.92% and 13.3% and 3.14%.
Still for that read-out and setting: the figure for `COc1cc(C2c3cc4c(cc3C(OC3OC5COC(C)OC5C(O)C3O)C3COC(=O)C23)OCO4)cc(OC)c1O` (stereo unspecified) is 25.6% and 10% and 46.4%; for `COc1cc(Nc2ncc3c(n2)-c2ccc(Cl)cc2C(c2c(F)cccc2OC)=NC3)ccc1C(=O)O` it is 81.5% and 123% and 25.9%; for `COc1cccc2c1C(=O)c1c(O)c3c(c(O)c1C2=O)CC(O)(C(=O)CO)CC3OC1CC(N)C(O)C(C)O1` (stereo unspecified) it is 0.28% and 1.4% and 0.25%.
On to `NS(=O)(=O)OCC1CC(n2ccc3c(NC4CCc5ccccc54)ncnc32)CC1O` (stereo unspecified), for which the viability, T/C is 5.48% and 7.98% and 1.51%.
Turning to `Nc1ccccc1NC(=O)c1ccc(CNC(=O)OCc2cccnc2)cc1`, the viability, T/C was 8.95% and 16.8% and 0.82%.
Regarding `Nc1ccn(C2OC(CO)C(O)C2(F)F)c(=O)n1` (stereo unspecified), the viability, T/C is 9.11% and 3.84% and 21.3%.
With `O=C(C=Cc1cccc(S(=O)(=O)Nc2ccccc2)c1)NO`, the viability, T/C is 5.03% and 5.28% and 0.5%.
Consider `O=C(c1cc(Cc2n[nH]c(=O)c3ccccc23)ccc1F)N1CCN(C(=O)C2CC2)CC1`, for which the viability, T/C is 120% and 114% and 36.5%.

The assay is the same for the next values; noted with them: curve of compound.
For `CC(C)CC(NC(=O)C(Cc1ccccc1)NC(=O)c1cnccn1)B(O)O` (stereo unspecified), the IC50 was 14.2 nM and 15.6 nM and 5.49 nM.
For the compound `CC1(C)CCC(CN2CCN(c3ccc(C(=O)NS(=O)(=O)c4ccc(NCC5CCOCC5)c([N+](=O)[O-])c4)c(Oc4cnc5[nH]ccc5c4)c3)CC2)=C(c2ccc(Cl)cc2)C1`, the IC50 is > 10000 nM and 7520 nM and 5330 nM.
For the compound `CC1COCCN1c1cc(-c2ccnn2C)c2ccnc(-c3ccn[nH]3)c2n1` (stereo unspecified), the IC50 is 80.6 nM and 81.6 nM and 23.5 nM.
On the same count and under the same terms, as for `CC1COCCN1c1cc(C2(S(C)(=N)=O)CC2)nc(-c2ccnc3[nH]ccc23)n1` (stereo unspecified), the figure is 4450 nM and 2390 nM and 779 nM; as for `CCN(c1cc(-c2ccc(CN3CCOCC3)cc2)cc(C(=O)NCc2c(C)cc(C)[nH]c2=O)c1C)C1CCOCC1`, > 3000 nM; as for `CC[C@@]1(O)C(=O)OCc2c1cc1n(c2=O)Cc2cc3c(CN(C)C)c(O)ccc3nc2-1`, > 100 nM and 19.6 nM.
`Cn1ncnc1C1c2n[nH]c(=O)c3cc(F)cc(c23)NC1c1ccc(F)cc1` (stereo unspecified): the IC50 was > 100 nM.
On to `NS(=O)(=O)OCC1CC(n2ccc3c(NC4CCc5ccccc54)ncnc32)CC1O` (stereo unspecified), for which the IC50 was 949 nM and 927 nM and 412 nM.
On to `Nc1ccccc1NC(=O)c1ccc(CNC(=O)OCc2cccnc2)cc1`, for which the IC50 is 4530 nM and 5440 nM and 639 nM.
In the case of `Nc1ccn(C2OC(CO)C(O)C2(F)F)c(=O)n1` (stereo unspecified), the IC50 is < 31.6 nM.
As to `Nc1ncn(C2CC(O)C(CO)O2)c(=O)n1` (stereo unspecified), the IC50 was > 1000 nM and 982 nM.
On the same count and under the same terms, as for `Nc1ncn(C2CC(O)C(CO)S2)c(=O)n1` (stereo unspecified), the figure is > 300 nM and 134 nM; as for `O=C(C=Cc1cccc(S(=O)(=O)Nc2ccccc2)c1)NO`, 1160 nM and 2160 nM and 285 nM; as for `O=C(C=Cn1cnc(-c2cc(C(F)(F)F)cc(C(F)(F)F)c2)n1)NNc1cnccn1`, 474 nM and 524 nM and 61.5 nM.
In the case of `O=C(c1cc(Cc2n[nH]c(=O)c3ccccc23)ccc1F)N1CCN(C(=O)C2CC2)CC1`, the IC50 is > 10000 nM and 6300 nM.

Source of the values: PubChem BioAssay AID1918991 (Molecular Pharmacology Branch, DTP, NCI, 2023).
